Experimental data as given in US20250281457A1, “TREATMENT OR PREVENTION OF DENGUE VIRAL INFECTION” (Janssen Pharmaceuticals, Inc., priority 2022, published 2025).
Like-named read-outs stand apart in the source and are kept apart here.

Assay: Effect of food on plasma pharmacokinetics after single oral dose of SF2a/b (Example 2)
Format: in vivo, human
Settings: both sexes, human, plasma, oral, 800 mg; for Tmax: read-out: tmax, Median
Experimental: The effect of food on the pharmacokinetics (PK) of Compound (a) was assessed in healthy participants after a single oral dose of SF2a/b, described in Example 1, administered at different dose levels in a randomized single dose, 2-period crossover study. The effect of food on the PK of Compound (a) was determined at 3 different dose levels (50 mg, 200 mg, and 800 mg) for a standardized breakfast; at one dose level (800 mg) for a high-fat, high-calorie breakfast; at two dose levels (200 mg and 800 mg) for a low-fat, low-calorie breakfast, as well as for a low-fat, high-calorie breakfast. 124 healthy adult participants (male and female, 18 to 55 years of age) were enrolled in this study. The volunteers were divided in six panels, which were organized as follows: • Panel […]: • Treatment D: A single 800-mg dose (4×200-mg tablets) of Compound (a) SF2b in fasted conditions. • Treatment E: A single 800-mg dose (4×200-mg tablets) of Compound (a) SF2b in fed conditions (standardized breakfast). • Treatments D and E (treatment sequence group 1 [n=8]: DE; treatment sequence group 2 [n=8]: ED). Panel 4, n=14: • Treatment F: A single 200-mg dose (1×200-mg tablet) of Compound (a) SF2b in fasted conditions. • Treatment G: A single 200-mg dose (1×200-mg tablet) of Compound (a) SF2b, in fed conditions (standardized breakfast). • Treatments F and G (treatment sequence group 1 [n=7]: FG; treatment sequence group 2 [n=7]: GF). Panel […]: • Treatment H: A single 50-mg dose (1×50-mg tablet) of Compound (a) SF2a in fasted conditions. • Treatment I: A single 50-mg dose (1×50-mg tablet) of Compound (a) SF2a in fed conditions (standardized breakfast). • Treatments H and I (treatment sequence group 1 [n=7]: HI; treatment sequence group 2 [n=7]: IH). Panel 6 (n=16): • Treatment J: single 800-mg dose (4×200-mg tablets) of Compound (a) administered as SF2b in fasted conditions. • Treatment K: single 800-mg dose (4×200-mg tablets) of Compound (a) administered as SF2b in fed conditions (high-fat, high-calorie breakfast). • Treatments J and K (treatment sequence group 1 [n=8]: JK; treatment sequence group 2 [n=8]: KJ). Panel 7 (n=32): • Treatment L: single 800-mg dose (4×200-mg tablets) of Compound (a) administered as SF2b in fed conditions (low-fat, low-calorie breakfast). • Treatment M: single 800-mg dose (4×200-mg tablets) of Compound (a) administered as SF2b in fed conditions (low-fat, high-calorie breakfast). • Treatment L (n=16) or Treatment M (n=16). Panel 8 (n=32): • Treatment N: single 200-mg dose (1×200-mg tablet) of Compound (a) administered as SF2b in fed conditions (low-fat, low-calorie breakfast). • Treatment O: single 200-mg dose (1×200-mg tablet) of Compound (a) administered as SF2b in fed conditions (low-fat, high-calorie breakfast). • Treatment N (n=16) or Treatment O (n=16). Tablets were administered orally, together with approximately 240 mL of non-carbonated water, in fasted or fed conditions. […] On day 1 of all treatments in each panel, the participants had fasted overnight for at least 10 hours before study drug intake. Intake of water was not allowed from 2 hours before and until 2 hours after study drug intake, except for the water used for study drug intake and breakfast. In case of intake in fed conditions, study drug was administered within 10 minutes after completing a standardized breakfast (Treatments E, G, and I), or a high-fat, high-calorie breakfast (Treatment K), a low-fat, low-calorie breakfast (Treatments L and N), or a low-fat, high-calorie breakfast (Treatments M and O). For treatments E, G, and I a standardized breakfast was served, consisting of (or its equivalent) 4 slices of bread, 2 slices of ham or cheese, butter, jelly, and 1 or 2 cups (up to 355 mL) of decaffeinated coffee or tea with milk and/or sugar, if desired (containing approximately: fat: 21 g, carbohydrates: 67 g, proteins: 19 g; total calories: 533 kcal). For treatment K in a high-fat, high-calorie breakfast was served. […]

COc1cc(NC(C(=O)c2c[nH]c3ccc(OC(F)(F)F)cc23)c2ccc(Cl)cc2OC)cc(S(C)(=O)=O)c1 (stereo not drawn) [Compound (a)]
Cmax (800 mg SF2b, fed, high-fat, high-calorie breakfast, read-out: Cmax, Geometric LS Means Treatment K): 4.05 µg/mL | AUC(0-t) (800 mg SF2b, fed, low-fat, high-calorie breakfast, read-out: AUClast, Geometric LS Means Treatment M): 227 µg·h/mL | AUC(0-inf) (800 mg SF2b, fed, low-fat, high-calorie breakfast, read-out: AUC∞, Geometric LS Means Treatment M): 237 µg·h/mL | Cmax (800 mg SF2b, fed, low-fat, high-calorie breakfast, read-out: Cmax, Geometric LS Means Treatment M): 2.06 µg/mL | AUC(0-t) (800 mg SF2b, fed, low-fat, low-calorie breakfast, read-out: AUClast, Geometric LS Means Treatment L): 210 µg·h/mL | AUC(0-inf) (800 mg SF2b, fed, low-fat, low-calorie breakfast, read-out: AUC∞, Geometric LS Means Treatment L): 221 µg·h/mL | Cmax (800 mg SF2b, fed, low-fat, low-calorie breakfast, read-out: Cmax, Geometric LS Means Treatment L): 2.06 µg/mL | AUC(0-t) (800 mg SF2b, fed, standardized breakfast (Tables 5F, 5H), read-out: AUClast, Geometric LS Means Treatment E): 347 µg·h/mL | AUC(0-inf) (800 mg SF2b, fed, standardized breakfast (Tables 5F, 5H), read-out: AUC∞, Geometric LS Means Treatment E): 341 µg·h/mL | Cmax (800 mg SF2b, fed, standardized breakfast (Tables 5F, 5H), read-out: Cmax, Geometric LS Means Treatment E): 3.4 µg/mL | AUC(0-t) (800 mg SF2b, standardized breakfast, linear mixed effects model (Table 5A), read-out: AUClast, Geometric Mean Treatment E): 337 µg·h/mL | AUC(0-inf) (800 mg SF2b, standardized breakfast, linear mixed effects model (Table 5A), read-out: AUC∞, Geometric Mean Treatment E): 352 µg·h/mL | Cmax (800 mg SF2b, standardized breakfast, linear mixed effects model (Table 5A), read-out: Cmax, Geometric Mean Treatment E): 3.39 µg/mL | AUC(0-t) (Treatment D: single 800 mg (SF2b), fasted, read-out: AUClast, Geo. Mean): 133 µg·h/mL | AUC(0-t) (Treatment D: single 800 mg (SF2b), fasted, read-out: AUClast, Mean): 149 µg·h/mL | AUC(0-t) (Treatment D: single 800 mg (SF2b), fasted, read-out: AUClast, Median): 138 µg·h/mL | AUC(0-inf) (Treatment D: single 800 mg (SF2b), fasted, read-out: AUC∞, Geo. Mean): 142 µg·h/mL | AUC(0-inf) (Treatment D: single 800 mg (SF2b), fasted, read-out: AUC∞, Mean): 160 µg·h/mL | AUC(0-inf) (Treatment D: single 800 mg (SF2b), fasted, read-out: AUC∞, Median): 144 µg·h/mL | Cmax (Treatment D: single 800 mg (SF2b), fasted, read-out: Cmax, Geo. Mean): 1.15 µg/mL | Cmax (Treatment D: single 800 mg (SF2b), fasted, read-out: Cmax, Mean): 1.3 µg/mL | Cmax (Treatment D: single 800 mg (SF2b), fasted, read-out: Cmax, Median): 1.45 µg/mL | half-life (Treatment D: single 800 mg (SF2b), fasted, read-out: t1/2, term, Geo. Mean (converted)): 180 h | half-life (Treatment D: single 800 mg (SF2b), fasted, read-out: t1/2, term, Mean (converted)): 194 h | half-life (Treatment D: single 800 mg (SF2b), fasted, read-out: t1/2, term, Median (converted)): 179 h | Tmax (Treatment D: single 800 mg (SF2b), fasted): 8 h | AUC(0-t) (Treatment E: single 800 mg (SF2b), fed, standardized breakfast, read-out: AUClast, Geo. Mean): 340 µg·h/mL | AUC(0-t) (Treatment E: single 800 mg (SF2b), fed, standardized breakfast, read-out: AUClast, Mean): 357 µg·h/mL | AUC(0-t) (Treatment E: single 800 mg (SF2b), fed, standardized breakfast, read-out: AUClast, Median): 337 µg·h/mL | AUC(0-inf) (Treatment E: single 800 mg (SF2b), fed, standardized breakfast, read-out: AUC∞, Geo. Mean): 337 µg·h/mL | AUC(0-inf) (Treatment E: single 800 mg (SF2b), fed, standardized breakfast, read-out: AUC∞, Mean): 348 µg·h/mL | AUC(0-inf) (Treatment E: single 800 mg (SF2b), fed, standardized breakfast, read-out: AUC∞, Median): 345 µg·h/mL | Cmax (Treatment E: single 800 mg (SF2b), fed, standardized breakfast, read-out: Cmax, Geo. Mean): 3.4 µg/mL | Cmax (Treatment E: single 800 mg (SF2b), fed, standardized breakfast, read-out: Cmax, Mean): 3.5 µg/mL | Cmax (Treatment E: single 800 mg (SF2b), fed, standardized breakfast, read-out: Cmax, Median): 3.51 µg/mL | half-life (Treatment E: single 800 mg (SF2b), fed, standardized breakfast, read-out: t1/2, term, Geo. Mean (converted)): 166 h | half-life (Treatment E: single 800 mg (SF2b), fed, standardized breakfast, read-out: t1/2, term, Mean (converted)): 176 h | half-life (Treatment E: single 800 mg (SF2b), fed, standardized breakfast, read-out: t1/2, term, Median (converted)): 150 h | Tmax (Treatment E: single 800 mg (SF2b), fed, standardized breakfast): 6 h
